The values that follow come from US10829473B2, “Modulators of the cystic fibrosis transmembrane conductance regulator protein and methods of use” (AbbVie Overseas S.Á.R.L., priority 2017, dated 2020).

Structures are written as SMILES. Read-outs that look alike come from different tables or passages of the source. Marks after values point to notes of the source that are not given here. Bounds are passed on as bounds.

The assay concerns the target T1, F508delCFTR (Homo sapiens, UniProt P13569, DEL508-508).
T1 construct: expressed in transfected cells; host or cells: CFBE41o- human lung derived epithelial cells (CFBE41o-F508delCFTR-HRP), doxycycline-inducible
Briefly: Cell Surface Expression-Horse Radish Peroxidase (CSE-HRP) Assay.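 For EC50 (with co-corrector): co-corrector chromenyl benzoic acid corrector at 2 or 3 µM.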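 For Maximum % activity (without co-corrector): % of on-plate positive control chromenyl benzoic acid corrector at 2 or 3 µM.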 The assay is classed as cell-based. As to conditions: for Maximum % activity (with co-corrector) / Emax: maximum at any tested concentration; for Emax: read-out: Maximum % activity (without co-corrector). The essentials:
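Corrector compounds were given as 8-point 3-fold series from 20 or 30 μM, with or without a 2 μM co-corrector, for 18-24 h at 33 °C. Surface HRP was read by luminol luminescence as % of positive control; variable-Hill-slope sigmoidal fitting gave EC50 from triplicate plates.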

Where [1] appears, read: test compound with co-corrector.
The mark [2] stands for this setting: test compound with co-corrector, read-out: EC50 (with co-corrector).
The mark [3] stands for this setting: test compound without co-corrector.
[4] abbreviates: test compound without co-corrector, read-out: EC50 (without co-corrector).

T1 sequence (P13569 with tags, fused parts or gaps DEL508-508): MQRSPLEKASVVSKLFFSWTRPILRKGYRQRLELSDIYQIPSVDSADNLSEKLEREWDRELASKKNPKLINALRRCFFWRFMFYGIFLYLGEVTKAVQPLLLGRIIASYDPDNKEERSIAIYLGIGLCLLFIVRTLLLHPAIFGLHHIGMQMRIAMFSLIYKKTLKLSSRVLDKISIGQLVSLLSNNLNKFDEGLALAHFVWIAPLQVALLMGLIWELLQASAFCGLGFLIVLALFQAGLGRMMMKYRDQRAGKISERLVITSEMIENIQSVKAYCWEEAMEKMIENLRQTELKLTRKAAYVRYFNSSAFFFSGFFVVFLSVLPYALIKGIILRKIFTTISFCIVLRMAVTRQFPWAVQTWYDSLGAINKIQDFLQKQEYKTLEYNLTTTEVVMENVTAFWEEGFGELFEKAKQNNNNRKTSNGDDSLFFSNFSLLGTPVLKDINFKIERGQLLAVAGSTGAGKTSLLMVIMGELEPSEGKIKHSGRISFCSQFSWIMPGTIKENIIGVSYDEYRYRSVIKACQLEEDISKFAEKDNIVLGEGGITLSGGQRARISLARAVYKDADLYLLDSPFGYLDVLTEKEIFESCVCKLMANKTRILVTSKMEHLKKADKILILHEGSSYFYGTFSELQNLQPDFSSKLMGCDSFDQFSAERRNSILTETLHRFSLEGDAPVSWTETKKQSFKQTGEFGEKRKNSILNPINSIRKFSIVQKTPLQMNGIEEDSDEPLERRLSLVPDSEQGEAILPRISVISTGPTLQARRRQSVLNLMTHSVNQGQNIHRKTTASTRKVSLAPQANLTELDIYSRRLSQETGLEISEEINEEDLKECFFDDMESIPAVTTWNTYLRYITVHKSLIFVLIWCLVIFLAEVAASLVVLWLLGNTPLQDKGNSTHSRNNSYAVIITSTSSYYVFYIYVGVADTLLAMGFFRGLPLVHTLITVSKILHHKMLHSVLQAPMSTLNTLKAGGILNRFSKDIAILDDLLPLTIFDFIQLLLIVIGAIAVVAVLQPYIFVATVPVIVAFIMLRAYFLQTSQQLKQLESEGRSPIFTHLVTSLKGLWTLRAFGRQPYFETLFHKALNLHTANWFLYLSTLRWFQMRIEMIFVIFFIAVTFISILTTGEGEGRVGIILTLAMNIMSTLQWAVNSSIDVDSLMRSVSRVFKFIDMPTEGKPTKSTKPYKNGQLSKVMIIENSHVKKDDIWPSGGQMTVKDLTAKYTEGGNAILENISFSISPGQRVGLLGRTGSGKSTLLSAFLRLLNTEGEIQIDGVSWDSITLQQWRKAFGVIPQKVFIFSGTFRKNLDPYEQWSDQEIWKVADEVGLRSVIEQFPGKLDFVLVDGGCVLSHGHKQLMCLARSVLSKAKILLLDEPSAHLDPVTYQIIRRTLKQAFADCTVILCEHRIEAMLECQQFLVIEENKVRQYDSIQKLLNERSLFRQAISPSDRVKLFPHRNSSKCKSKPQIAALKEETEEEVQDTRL

In the case of `COc1cc(C)c(C2(C(=O)NS(=O)(=O)c3cccc4ccccc34)CC2)cn1` [GII-22, 1-(6-methoxy-4-methylpyridin-3-yl)-N-(naphthalene-1-sulfonyl)cyclopropane-1-carboxamide], under setting [1], the “Maximum % activity (with co-corrector)” value is “+++ (≥350)”. Further, the EC50 reads like this: under setting [2], 3 to 10 µM; under setting [4], 3 to 10 µM. Also, under setting [3], the Emax was over 150%.

On to `COc1cc(C)c(C2(C(=O)NS(=O)(=O)c3cccc4ncccc34)CC2)cn1` [GII-23, 1-(6-methoxy-4-methylpyridin-3-yl)-N-(quinoline-5-sulfonyl)cyclopropane-1-carboxamide], for which, under setting [1], the “EC50 (with co-corrector)” value is listed as “++^a”; the “Maximum % activity (with co-corrector)” value is “++ (≥150 and <350)”. For the same compound, under setting [3], the “EC50 (without co-corrector)” value was “++^a” and the Emax fell in the range of 50 to 150%.

Turning to `COc1cc(OC(C)C)c(C2(C(=O)NS(=O)(=O)c3cccc4c3CCCN4)CC2)cn1` [GII-24, 1-{6-methoxy-4-[(propan-2-yl)oxy]pyridin-3-yl}-N-(1,2,3,4-tetrahydroquinoline-5-sulfonyl)cyclopropane-1-carboxamide], under setting [1], the “Maximum % activity (with co-corrector)” value is “++ (≥150 and <350)”. For the same compound, the EC50 under setting [2] is 3 to 10 µM. Under setting [3], the “EC50 (without co-corrector)” value is given as “++^a” and the Emax fell in the range of 50 to 150%.

As to `CC(C)Oc1ncc(C2CCC2)cc1C1(C(=O)NS(=O)(=O)c2cccc3c2CCCN3)CC1` [GII-25, 1-{5-cyclobutyl-2-[(propan-2-yl)oxy]pyridin-3-yl}-N-(1,2,3,4-tetrahydroquinoline-5-sulfonyl)cyclopropane-1-carboxamide], the “Maximum % activity (with co-corrector)” value under setting [1] is given as “+++ (≥350)”. Moreover, the concentration for a half-maximal effect (EC50) under setting [2] lay within 3 to 10 µM and the EC50 under setting [4] is 3 to 10 µM. Further, under setting [3], the Emax was over 150%.

With `CC(C)Oc1cnc(C2CCC2)cc1C1(C(=O)NS(=O)(=O)c2cccc3c2CCCN3)CC1` [GII-26, 1-{2-cyclobutyl-5-[(propan-2-yl)oxy]pyridin-4-yl}-N-(1,2,3,4-tetrahydroquinoline-5-sulfonyl)cyclopropane-1-carboxamide], the “Maximum % activity (with co-corrector)” value under setting [1] is listed as “+++ (≥350)”. In addition, the EC50 is, setting by setting: under setting [2], 3 to 10 µM; under setting [4], 3 to 10 µM. Further, the Emax under setting [3] is over 150%.

On to `CC(C)Oc1cc(C2CCC2)cnc1C1(C(=O)NS(=O)(=O)c2cccc3ncccc23)CC1` [GII-27, 1-{5-cyclobutyl-3-[(propan-2-yl)oxy]pyridin-2-yl}-N-(quinoline-5-sulfonyl)cyclopropane-1-carboxamide], for which the “Maximum % activity (with co-corrector)” value under setting [1] is “++ (≥150 and <350)”. Also, the half-maximal effective concentration (EC50) is, setting by setting: under setting [2], 3 to 10 µM; under setting [4], 3 to 10 µM. Besides, the Emax under setting [3] was in the range of 50 to 150%.

For the compound `O=C(NS(=O)(=O)c1cccc2ncccc12)C1(c2cc(C3CCC3)cnc2N2CCOCC2)CC1` [GII-28, 1-[5-cyclobutyl-2-(morpholin-4-yl)pyridin-3-yl]-N-(quinoline-5-sulfonyl)cyclopropane-1-carboxamide], under setting [1], the “Maximum % activity (with co-corrector)” value was “++ (≥150 and <350)”. Moreover, the concentration giving a half-maximal response (EC50) under setting [2] lay in the range of 3 to 10 µM. Under setting [3], the “EC50 (without co-corrector)” value is given as “++^a” and the Emax lay in the range of 50 to 150%.

Take `O=C(NS(=O)(=O)c1cccc2c1CCCN2)C1(c2cc(C3CC3)cnc2N2CCCC2)CC1` [GII-29, 1-[5-cyclopropyl-2-(pyrrolidin-1-yl)pyridin-3-yl]-N-(1,2,3,4-tetrahydroquinoline-5-sulfonyl)cyclopropane-1-carboxamide]: the “Maximum % activity (with co-corrector)” value under setting [1] is recorded as “+++ (≥350)”. For the same compound, the half-maximal effective concentration (EC50) is 3 to 10 µM under setting [2] and 3 to 10 µM under setting [4]. Moreover, the Emax under setting [3] is over 150%.

Regarding `CCc1cnc(N2CCCC2)c(C2(C(=O)NS(=O)(=O)c3cccc4ncccc34)CC2)c1` [GII-30, 1-[5-ethyl-2-(pyrrolidin-1-yl)pyridin-3-yl]-N-(quinoline-5-sulfonyl)cyclopropane-1-carboxamide], under setting [1], the “Maximum % activity (with co-corrector)” value is reported as “+++ (≥350)”. In addition, the 50% effective concentration (EC50) is, setting by setting: under setting [2], 3 to 10 µM; under setting [4], 3 to 10 µM. Moreover, the Emax under setting [3] is over 150%.

`CCc1cnc(N2CCCC2)c(C2(C(=O)NS(=O)(=O)c3cccc4nc(C)ccc34)CC2)c1` [GII-31, 1-[5-ethyl-2-(pyrrolidin-1-yl)pyridin-3-yl]-N-(2-methylquinoline-5-sulfonyl)cyclopropane-1-carboxamide]: the “Maximum % activity (with co-corrector)” value under setting [1] is on record as “+++ (≥350)”. Moreover, the EC50 by setting is: under setting [2], 3 to 10 µM; under setting [4], 3 to 10 µM. For the same compound, the Emax under setting [3] is over 150%.

As for `CCc1cnc(N2CCOCC2)c(C2(C(=O)NS(=O)(=O)c3cccc4nc(C)ccc34)CC2)c1` [GII-32, 1-[5-ethyl-2-(morpholin-4-yl)pyridin-3-yl]-N-(2-methylquinoline-5-sulfonyl)cyclopropane-1-carboxamide], under setting [1], the “EC50 (with co-corrector)” value is “++^a”; the “Maximum % activity (with co-corrector)” value was “++ (≥150 and <350)”. Further, under setting [3], the “EC50 (without co-corrector)” value is reported as “++^a” and the Emax is 50 to 150%.

With `O=C(NS(=O)(=O)c1cccc2ncccc12)C1(c2cccnc2N2CCCC2)CC1` [GII-33, 1-[2-(pyrrolidin-1-yl)pyridin-3-yl]-N-(quinoline-5-sulfonyl)cyclopropane-1-carboxamide], under setting [1], the “EC50 (with co-corrector)” value was “++^a”; the “Maximum % activity (with co-corrector)” value is “++ (≥150 and <350)”. Also, under setting [3], the “EC50 (without co-corrector)” value is listed as “++^a” and the Emax fell in the range of 50 to 150%.

Regarding `Cc1ccc2c(S(=O)(=O)NC(=O)C3(c4cccnc4N4CCCC4)CC3)cccc2n1` [GII-34, N-(2-methylquinoline-5-sulfonyl)-1-[2-(pyrrolidin-1-yl)pyridin-3-yl]cyclopropane-1-carboxamide], under setting [1], the “EC50 (with co-corrector)” value is listed as “++^a”; the “Maximum % activity (with co-corrector)” value was “++ (≥150 and <350)”. For the same compound, under setting [3], the “EC50 (without co-corrector)” value was “++^a” and the Emax was in the range of 50 to 150%.

For the compound `CCc1cnc(N2CCCC2)c(C2(C(=O)NS(=O)(=O)c3cccc4c3CCCN4)CC2)c1` [GII-35, 1-[5-ethyl-2-(pyrrolidin-1-yl)pyridin-3-yl]-N-(1,2,3,4-tetrahydroquinoline-5-sulfonyl)cyclopropane-1-carboxamide], the “Maximum % activity (with co-corrector)” value under setting [1] was “++ (≥150 and <350)”. The half-maximal effective concentration (EC50) is, setting by setting: under setting [2], 3 to 10 µM; under setting [4], 3 to 10 µM. The Emax under setting [3] is over 150%.

With `Cc1cnc(N2CCCC2)c(C2(C(=O)NS(=O)(=O)c3cccc4nc(C)ccc34)CC2)c1` [GII-36, 1-[5-methyl-2-(pyrrolidin-1-yl)pyridin-3-yl]-N-(2-methylquinoline-5-sulfonyl)cyclopropane-1-carboxamide], under setting [1], the “Maximum % activity (with co-corrector)” value is “+++ (≥350)”. Also, the EC50 runs as follows: under setting [2], 3 to 10 µM; under setting [4], 3 to 10 µM. Further, the Emax under setting [3] lay within 50 to 150%.

In the case of `Cc1cnc(N2CCCC2)c(C2(C(=O)NS(=O)(=O)c3cccc4[nH]ccc34)CC2)c1` [GII-37, N-(1H-indole-4-sulfonyl)-1-[5-methyl-2-(pyrrolidin-1-yl)pyridin-3-yl]cyclopropane-1-carboxamide], under setting [1], the “Maximum % activity (with co-corrector)” value is given as “+++ (≥350)”. For the same compound, the EC50 by setting is: under setting [2], 3 to 10 µM; under setting [4], 3 to 10 µM. The Emax under setting [3] is over 150%.

Broadly, the EC50 is the midpoint of the concentration-response curve.
